Data published in patent US10851097B2, “4,5,6,7-tetrahydro-1H-imidazo[4,5-c]pyridine and 1,4,5,6,7,8-hexahydroimidazo[4,5-d]azepine derivatives as janus kinase inhibitors” (Topivert Pharma Limited, priority 2015, dated 2020).
In brackets after ≈: the same amount, converted by molar mass. Where two headings read alike, the source gives them in different places.

How the values were obtained:
TYK2 = target: T1, TYK2 (Homo sapiens, UniProt P29597); assay: KINOMEscan enzyme binding assay (DiscoveRx), TYK2; settings: read-out: Dissociation Constant TYK2
T1 construct: purchased DiscoveRx (LeadHunter Discover Services, KINOMEscan)
T1 sequence (P29597 888-1187 limits assumed): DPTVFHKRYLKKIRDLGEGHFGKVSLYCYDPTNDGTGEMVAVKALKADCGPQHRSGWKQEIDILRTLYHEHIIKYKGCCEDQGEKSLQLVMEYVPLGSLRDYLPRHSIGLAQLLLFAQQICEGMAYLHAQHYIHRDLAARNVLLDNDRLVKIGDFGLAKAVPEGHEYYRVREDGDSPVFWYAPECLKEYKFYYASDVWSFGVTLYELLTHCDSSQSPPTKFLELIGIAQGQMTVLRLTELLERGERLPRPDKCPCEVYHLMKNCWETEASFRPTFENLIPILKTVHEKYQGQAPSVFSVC
Procedure: (§1) These assays may be conducted by DiscoveRx (formerly Ambit; San Diego, Calif.). The percentage inhibition produced by incubation with a test compound may be calculated relative to the non-inhibited control.

[1] = Solubility in fasted-state simulated colonic fluid (FaSSCoF) at pH 6.5; type: physicochemical; settings: 25 °C, pH 6.5, fassgf or other biorelevant, thermodynamic from solid, pH 6.5, 25° C., Run 1, read-out: pH 6.5 FaSSCoF Solubility Run 1
Procedure: The solubilities of compounds of the invention in FaSSCoF at pH 6.5 are determined using a modification of a previously-reported procedure (Vertzoni, M., et al. Pharm. Res. 2010, 27, 2187-2196). In place of the bile salt extract employed in the original procedure (which extract is no longer available), the modified procedure uses a mixture of sodium taurochlorate (0.15 g), glycocholic acid (0.15 g), ursodeoxycholic acid (0.05 g), cholic acid (0.05 g), and glycodeoxycholic acid (0.05 g). These five bile acids are ground together with a mortar and pestle to produce a fine white powder that is incorporated into the FaSSCoF, as outlined below.
Tris(hydroxymethyl)aminomethane (Tris; 0.275 g) and maleic acid (0.44 g) are dissolved in water (35 mL) to give a solution whose pH is adjusted to 6.5 by treatment with 0.5M NaOH (ca. 12 mL). The solution is then made up to 50 mL with water. A portion of this Tris/maleate buffer solution (ca. 25 mL) is added to a 0.5 L round-bottomed flask, before being treated with 0.00565 g of the bile acid mixture described above. Solutions of phosphatidylcholine (0.0111 g) in DCM (0.15 mL) and palmitic acid (0.0013 g) in DCM (0.15 mL) are added, then the organic solvent is evaporated off under reduced pressure at 40° C. until a clear solution, with no perceptible DCM odour, is achieved. The volume of the evaporated solution is adjusted to 50 mL by addition of the remainder of Tris/maleate buffer, then BSA (0.115 g) is added, before being dissolved by gentle agitation.
Test compounds are suspended in the pH 6.5 FaSSCoF medium to give a maximum final concentration of 2-10 mg/mL. The suspensions are equilibrated at 25° C. for 24 h, before being filtered through a glass fibre C filter. The filtrates are then diluted as appropriate for injection and quantification by HPLC with reference to a standard. Different volumes of the standard, diluted and undiluted sample solutions are injected and the solubilities are calculated using the peak areas determined by integration of the peak found at the same retention time as the principal peak in the standard injection.

Jurkat cells = assay: Cell cytotoxicity assay in Jurkat cells (assay (c)); type: cell-based, human; settings: 24 h, propidium iodide, normalised to DMSO control
Procedure: (c) Cell Cytotoxicity Assay
1×10^5 Jurkat cells (immortalised human T lymphocytes) are added to the appropriate number of wells of a 96 well plate in 100 μL of media (RPMI supplemented with 10% foetal bovine serum). 1 μL of DMSO control (final concentration 1.0% v/v) or test compound (final concentration 20, 5 or 1 μg/mL) is added to the wells and incubated at 37° C., 5% CO2. After 24 hours, the plate is centrifuged at 1200 rpm for 3 minutes and the supernatant discarded. Cells are then resuspended in 150 μL (final concentration 7.5 μg/mL) of propidium iodide (PI) in PBS and incubated at 37° C., 5% CO2 for 15 minutes. After 15 minutes, cells are analysed by flow cytometry (BD accuri) using the FL3 window. The % viability is calculated as the % of cells that are PI negative in the test wells normalised to the DMSO control.

JAK1 = target: T2, JAK1 (Homo sapiens, UniProt P23458); assay: KINOMEscan enzyme binding assay (DiscoveRx), JAK1; settings: read-out: Dissociation Constant JAK1
T2 construct: purchased DiscoveRx (LeadHunter Discover Services, KINOMEscan)
Procedure: as §1

JAK3 = target: T3, JAK3 (Homo sapiens, UniProt P52333); assay: KINOMEscan enzyme binding assay (DiscoveRx), JAK3; settings: read-out: Dissociation Constant JAK3
T3 construct: purchased DiscoveRx (LeadHunter Discover Services, KINOMEscan)
Procedure: as §1

[2] = Systemic pharmacokinetics and total colon tissue distribution after single oral administration in mice; type: in vivo, male C57BL/6 mice; settings: for Kp: total colon tissue / plasma, po, 10 mg/kg
Procedure: Studies were conducted by Sai Life Sciences (Hinjewadi, Pune, India) to investigate the systemic pharmacokinetics and total colon tissue distribution of compounds of the invention following a single oral administration in male C57BL/6 mice.
A group of twenty four male mice were administered with a solution of test compound formulated at a dose of 10 mg/10 mL/kg in aqueous hydroxypropyl-β-cyclodextrin (20% w/v in water). Blood samples (approximately 60 μL) were collected from retro-orbital plexus of each mouse under light isoflurane anaesthesia such that the samples were obtained at 0.5, 1, 2, 4, 6, 8, 12 and 24 hr. The blood samples were collected from a set of three mice at each time point in a labeled micro centrifuge tube containing K2EDTA as anticoagulant. Plasma samples were separated by centrifugation at 4000 rpm for 10 min and stored below −70° C. until bioanalysis. After collection of blood sample, animals were humanely euthanized by carbon dioxide asphyxiation to collect total colon tissues. The colons were flushed with cold PBS (pH7.4) to remove contents. The total colon tissues were homogenized with cold PBS (pH7.4) of twice the weight of colon tissue and stored below −70° C. Total volume was three times the total colon tissue weights. All samples were processed for analysis by protein precipitation using acetonitrile and analyzed with a fit-for-purpose LC-MS/MS method. Pharmacokinetic parameters were calculated using the non-compartmental analysis tool of Phoenix WinNonlin® (Version 6.3).

[3] = male, C57BL/6, mouse, oral 10 mg/kg, plasma, read-out: Mean plasma concentration
[4] = male, C57BL/6, mouse, total colon tissue, oral 10 mg/kg, total colon, read-out: Total colon level

T2 sequence (P23458 866-1154 limits assumed): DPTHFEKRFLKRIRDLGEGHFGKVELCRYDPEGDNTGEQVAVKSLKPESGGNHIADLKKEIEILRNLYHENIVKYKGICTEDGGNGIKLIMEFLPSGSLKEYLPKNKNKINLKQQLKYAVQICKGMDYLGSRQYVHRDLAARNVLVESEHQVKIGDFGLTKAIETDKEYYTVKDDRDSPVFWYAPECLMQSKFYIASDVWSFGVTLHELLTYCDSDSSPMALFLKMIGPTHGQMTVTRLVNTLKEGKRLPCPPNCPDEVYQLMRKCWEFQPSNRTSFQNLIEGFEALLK
T3 sequence (P52333 813-1124 limits assumed): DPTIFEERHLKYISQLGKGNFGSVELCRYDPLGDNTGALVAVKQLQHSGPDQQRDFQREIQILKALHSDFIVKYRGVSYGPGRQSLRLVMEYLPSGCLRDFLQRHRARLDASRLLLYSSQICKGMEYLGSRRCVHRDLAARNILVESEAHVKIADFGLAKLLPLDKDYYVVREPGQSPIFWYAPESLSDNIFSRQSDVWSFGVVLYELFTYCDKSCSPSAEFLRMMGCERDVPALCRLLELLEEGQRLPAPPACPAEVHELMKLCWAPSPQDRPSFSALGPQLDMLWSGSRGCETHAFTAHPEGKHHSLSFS

For `CCc1cc(O)c(F)cc1-c1ccc2c(-c3nc4c([nH]3)CCN(C(=O)c3cnc(N(C)CCN5CCCC5=O)cn3)C4)n[nH]c2c1` [Example 2(k), 1-(2-((5-(2-(6-(2-ethyl-5-fluoro-4-hydroxyphenyl)-1H-indazol-3-yl)-4,5,6,7-tetrahydro-1H-imidazo[4,5-c]pyridine-5-carbonyl)pyrazin-2-yl)(methyl)amino)ethyl)pyrrolidin-2-one], the Kd (TYK2) was 0.13 nM, the solubility thermodynamic at 24 h [1] was 10 µg/mL (≈ 16 µM) and the “% viability at 1 μg/mL” value (Jurkat cells) was 93%. It also gave a Kd (JAK1) of 1 nM, a Kd (JAK3) of 0.092 nM and a concentration at 0.5 h [2, 3] of 2.4 ng/mL. It also gave a concentration at 1 h [2, 3] of 2.6 ng/mL, a concentration at 2 h [2, 3] of 1.9 ng/mL and a concentration at 4 h [2, 3] of 1.1 ng/mL. The concentration at 6 h [2, 3] was 3.4 ng/mL, the concentration at 8 h [2, 3] was 4.8 ng/mL and the concentration at 12 h [2, 3] was 1.2 ng/mL. The concentration at 24 h [2, 3] was 0 ng/mL, the AUC(0-t) ([2]; male, C57BL/6, mouse, oral 10 mg/kg, plasma, read-out: AUC0-24 h P (plasma)) was 20 ng·h/mL and the Cmax ([2]; male, C57BL/6, mouse, oral 10 mg/kg, plasma, read-out: Cmax P (plasma)) was 4.8 ng/mL. For the same compound, the Kp ([2]; male, C57BL/6, mouse, read-out: AUC0-24 h ratio (total colon to plasma)) was 4850, the Kp ([2]; male, C57BL/6, mouse, read-out: Cmax ratio (total colon to plasma)) was 3170 and the concentration at 0.5 h [2, 4] was 431 ng/g. For the same compound, the concentration at 1 h [2, 4] was 1160 ng/g, the concentration at 2 h [2, 4] was 5450 ng/g and the concentration at 4 h [2, 4] was 7230 ng/g. It also gave a concentration at 6 h [2, 4] of 4820 ng/g, a concentration at 8 h [2, 4] of 15200 ng/g and a concentration at 12 h [2, 4] of 2220 ng/g. For the same compound, the concentration at 24 h [2, 4] was 44.8 ng/g, the Cmax ([2]; male, C57BL/6, mouse, total colon tissue, oral 10 mg/kg, total colon, read-out: Cmax C (total colon)) was 15200 ng/g and the “Systemic plasma exposure following oral administration” value ([2]; oral 10 mg/kg, plasma, in words) was “very low”. The “AUC0-24 h C (total colon)” value ([2]; oral 10 mg/kg, total colon) was 97,062 h · ng/g and the “Colonic concentrations following oral administration” value ([2]; oral 10 mg/kg, total colon, in words) was “substantial colonic concentrations”.
